From ChEMBL document CHEMBL2375215, “Phenylpropiophenone derivatives as potential anticancer agents: synthesis, biological evaluation and quantitative structure-activity relationship study” (Eur J Med Chem, 2013)

How the values were obtained:
[1] = tested on: K562; assay: Selectivity index, ratio of IC50 for PHA-stimulated human PBMC to IC50 for human K562 cells
[2] = tested on: Fem-X; assay: (§1) Cytotoxicity against human Fem-X cells assessed as decrease in cell survival after 72 hrs by MTT assay; format: functional, cell-based
[3] = as §1; format: functional, cell-based
[4] = tested on: PC-3; assay: Selectivity index, ratio of IC50 for PHA-stimulated human PBMC to IC50 for human PC3 cells
[5] = tested on: PC-3; assay: Cytotoxicity against human PC3 cells assessed as decrease in cell survival after 72 hrs by MTT assay; format: functional, cell-based; conditions: for IC50: PC-3, 72 h
[6] = tested on: MCF7; assay: Selectivity index, ratio of IC50 for human PBMC to IC50 for human MCF7 cells
[7] = tested on: HeLa; assay: Selectivity index, ratio of IC50 for PHA-stimulated human PBMC to IC50 for human HeLa cells
[8] = tested on: HeLa; assay: Cytotoxicity against human HeLa cells assessed as decrease in cell survival after 72 hrs by MTT assay; format: functional, cell-based
[9] = tested on: PC-3; assay: Selectivity index, ratio of IC50 for human PBMC to IC50 for human PC3 cells
[10] = Selectivity index, ratio of IC50 for PHA-stimulated human PBMC to IC50 for human Fem-X cells; format: functional
[11] = tested on: MCF7; assay: Selectivity index, ratio of IC50 for PHA-stimulated human PBMC to IC50 for human MCF7 cells
[12] = Selectivity index, ratio of IC50 for PHA-stimulated human PBMC to IC50 for human LS174 cells
[13] = tested on: K562; assay: Cytotoxicity against human K562 cells assessed as decrease in cell survival after 72 hrs by MTT assay; format: functional, cell-based; conditions: for IC50: K562, 72 h
[14] = tested on: K562; assay: Selectivity index, ratio of IC50 for human PBMC to IC50 for human K562 cells
[15] = tested on: LS174; assay: (§2) Cytotoxicity against human LS174 cells assessed as decrease in cell survival after 72 hrs by MTT assay; format: functional, cell-based
[16] = as §2; format: functional, cell-based; conditions: LS174, 72 h
[17] = Selectivity index, ratio of IC50 for human PBMC to IC50 for human LS174 cells
[18] = Selectivity index, ratio of IC50 for human PBMC to IC50 for human Fem-X cells
[19] = tested on: HeLa; assay: Selectivity index, ratio of IC50 for human PBMC to IC50 for human HeLa cells
[20] = tested on: PBMC; assay: Cytotoxicity against human PBMC assessed as decrease in cell survival after 72 hrs by MTT assay; format: cell-based
[21] = tested on: PBMC; assay: Cytotoxicity against PHA-stimulated human PBMC assessed as decrease in cell survival after 72 hrs by MTT assay; format: cell-based
[22] = tested on: MCF7; assay: Cytotoxicity against human MCF7 cells assessed as decrease in cell survival after 72 hrs by MTT assay; format: functional, cell-based; conditions: for IC50: MCF7, 72 h

For `CCCNCC(O)COc1ccccc1C(=O)CCc1ccc(C)cc1.Cl` (racemic), the “Ratio IC50” value [1] was 2.82, the Activity [2] was “Dose-dependent effect” and the IC50 ([3]; read-out: IC50) was 12.7 µM. For the same compound, the IC50 ([3]; read-out: pIC50 (converted)) was 12.7 µM, the “Ratio IC50” value [4] was 1.68 and the Activity [5] was “Dose-dependent effect”. For the same compound, the IC50 ([5]; read-out: IC50) was 24.7 µM, the IC50 ([5]; read-out: pIC50 (converted)) was 24.7 µM and the “Ratio IC50” value [6] was 1.54. The “Ratio IC50” value [7] was 1.91, the Activity [8] was “Dose-dependent effect” and the IC50 ([8]; read-out: IC50) was 21.7 µM. For the same compound, the IC50 ([8]; read-out: pIC50 (converted)) was 21.7 µM, the “Ratio IC50” value [9] was 1.97 and the “Ratio IC50” value [10] was 3.26. The “Ratio IC50” value [11] was 1.31, the “Ratio IC50” value [12] was 1.99 and the Activity [13] was “Dose-dependent effect”. The IC50 ([13]; read-out: IC50) was 14.7 µM, the IC50 ([13]; read-out: pIC50 (converted)) was 14.7 µM and the “Ratio IC50” value [14] was 3.31. The Activity [15] was “Dose-dependent effect”, the IC50 ([16]; read-out: IC50) was 20.8 µM and the IC50 ([16]; read-out: pIC50 (converted)) was 20.8 µM. For the same compound, the “Ratio IC50” value [17] was 2.34, the “Ratio IC50” value [18] was 3.83 and the “Ratio IC50” value [19] was 2.24. The IC50 [20] was 48.7 µM, the IC50 [21] was 41.4 µM and the Activity [22] was “Dose-dependent effect”. For the same compound, the IC50 ([22]; read-out: IC50) was 31.7 µM and the IC50 ([22]; read-out: pIC50 (converted)) was 31.7 µM.
In the case of `CCCNCC(O)COc1ccccc1C(=O)CCc1ccccc1F.Cl` (racemic), the “Ratio IC50” value [1] is reported as 1.28, the Activity [2] is reported as “Dose-dependent effect” and the IC50 ([3]; read-out: IC50) is reported as 38.2 µM. For the same compound, the IC50 ([3]; read-out: pIC50 (converted)) was 38.2 µM, the “Ratio IC50” value [4] was 1.04 and the Activity [5] was “Dose-dependent effect”. For the same compound, the IC50 ([5]; read-out: IC50) was 46.4 µM, the IC50 ([5]; read-out: pIC50 (converted)) was 46.4 µM and the “Ratio IC50” value [6] was 2.57. For the same compound, the “Ratio IC50” value [7] was 2.93, the Activity [8] was “Dose-dependent effect” and the IC50 ([8]; read-out: IC50) was 16.4 µM. For the same compound, the IC50 ([8]; read-out: pIC50 (converted)) was 16.4 µM, the “Ratio IC50” value [9] was 1.02 and the “Ratio IC50” value [10] was 1.26. For the same compound, the “Ratio IC50” value [11] was 2.6, the “Ratio IC50” value [12] was 0.67 and the Activity [13] was “Dose-dependent effect”. The IC50 ([13]; read-out: IC50) was 37.6 µM, the IC50 ([13]; read-out: pIC50 (converted)) was 37.6 µM and the “Ratio IC50” value [14] was 1.26. The Activity [15] was “Dose-dependent effect”, the IC50 ([16]; read-out: IC50) was 72.2 µM and the IC50 ([16]; read-out: pIC50 (converted)) was 72.2 µM. For the same compound, the “Ratio IC50” value [17] was 0.66, the “Ratio IC50” value [18] was 1.24 and the “Ratio IC50” value [19] was 2.89. The IC50 [20] was 47.5 µM, the IC50 [21] was 48.1 µM and the Activity [22] was “Dose-dependent effect”. For the same compound, the IC50 ([22]; read-out: IC50) was 18.5 µM and the IC50 ([22]; read-out: pIC50 (converted)) was 18.5 µM.
In the case of `O=C(/C=C/c1ccccc1C(F)(F)F)c1ccccc1O`, the “Ratio IC50” value [1] is reported as 3.79, the Activity [2] is reported as “Dose-dependent effect” and the IC50 ([3]; read-out: IC50) is reported as 10.2 µM. The IC50 ([3]; read-out: pIC50 (converted)) was 10.2 µM, the “Ratio IC50” value [4] was 1.04 and the Activity [5] was “Dose-dependent effect”. The IC50 ([5]; read-out: IC50) was 33.5 µM, the IC50 ([5]; read-out: pIC50 (converted)) was 33.5 µM and the “Ratio IC50” value [6] was 2.48. For the same compound, the “Ratio IC50” value [7] was 1.92, the Activity [8] was “Dose-dependent effect” and the IC50 ([8]; read-out: IC50) was 18.1 µM. For the same compound, the IC50 ([8]; read-out: pIC50 (converted)) was 18.1 µM, the “Ratio IC50” value [9] was 1.25 and the “Ratio IC50” value [10] was 3.42. The “Ratio IC50” value [11] was 2.07, the “Ratio IC50” value [12] was 1.32 and the Activity [13] was “Dose-dependent effect”. For the same compound, the IC50 ([13]; read-out: IC50) was 9.2 µM, the IC50 ([13]; read-out: pIC50 (converted)) was 9.2 µM and the “Ratio IC50” value [14] was 4.55. For the same compound, the Activity [15] was “Dose-dependent effect”, the IC50 ([16]; read-out: IC50) was 26.4 µM and the IC50 ([16]; read-out: pIC50 (converted)) was 26.4 µM. The “Ratio IC50” value [17] was 1.59, the “Ratio IC50” value [18] was 4.1 and the “Ratio IC50” value [19] was 2.31. The IC50 [20] was 41.9 µM, the IC50 [21] was 25.2 µM and the Activity [22] was “Dose-dependent effect”. It also gave an IC50 ([22]; read-out: IC50) of 16.9 µM and an IC50 ([22]; read-out: pIC50 (converted)) of 16.9 µM.
With `CCCNCC(O)COc1ccccc1C(=O)CCc1ccc(F)cc1.Cl` (racemic) the “Ratio IC50” value [1] was 1.76, the Activity [2] was “Dose-dependent effect” and the IC50 ([3]; read-out: IC50) was 9.6 µM. The IC50 ([3]; read-out: pIC50 (converted)) was 9.6 µM, the “Ratio IC50” value [4] was 1.53 and the Activity [5] was “Dose-dependent effect”. The IC50 ([5]; read-out: IC50) was 31.9 µM, the IC50 ([5]; read-out: pIC50 (converted)) was 31.9 µM and the “Ratio IC50” value [6] was 1.83. For the same compound, the “Ratio IC50” value [7] was 3.03, the Activity [8] was “Dose-dependent effect” and the IC50 ([8]; read-out: IC50) was 16.1 µM. For the same compound, the IC50 ([8]; read-out: pIC50 (converted)) was 16.1 µM, the “Ratio IC50” value [9] was 3.35 and the “Ratio IC50” value [10] was 5.08. For the same compound, the “Ratio IC50” value [11] was 1.48, the “Ratio IC50” value [12] was 2.1 and the Activity [13] was “Dose-dependent effect”. The IC50 ([13]; read-out: IC50) was 27.7 µM, the IC50 ([13]; read-out: pIC50 (converted)) was 27.7 µM and the “Ratio IC50” value [14] was 2.18. For the same compound, the Activity [15] was “Dose-dependent effect”, the IC50 ([16]; read-out: IC50) was 23.2 µM and the IC50 ([16]; read-out: pIC50 (converted)) was 23.2 µM. For the same compound, the “Ratio IC50” value [17] was 2.6, the “Ratio IC50” value [18] was 6.28 and the “Ratio IC50” value [19] was 3.75. The IC50 [20] was 60.3 µM, the IC50 [21] was 48.8 µM and the Activity [22] was “Dose-dependent effect”. For the same compound, the IC50 ([22]; read-out: IC50) was 33 µM and the IC50 ([22]; read-out: pIC50 (converted)) was 33 µM.
